Drawing on ChEMBL document CHEMBL1136092, “Enantiotracin” (2003), this text covers MIC for 2 molecules.

Type in all cases: functional
The test system of one assay is Micrococcus luteus. Briefly: In vitro inhibitory concentration required against Micrococcus luteus (Micrococcus luteus).
For a further assay, the system named is Staphylococcus aureus. Briefly: In vitro inhibitory concentration required against Staphylococcus aureus (Staphylococcus aureus).
Assay [1] concerns Staphylococcus epidermidis. As to the kind of experiment: In vitro inhibitory concentration required against Staphylococcus epidermidis (Staphylococcus epidermidis).

Structures are written as SMILES. Values after ≈ are worked out from the molar mass of the structure shown. Where only a bound is given, the exact number is not on record here.

The MIC is the least concentration at which growth counts as inhibited.

For `CC[C@H](C)[C@@H](N)C1=N[C@@H](C(=O)N[C@H](CC(C)C)C(=O)N[C@@H](CCC(=O)O)C(=O)N[C@@H](C(=O)N[C@@H]2CCCCNC(=O)[C@@H](CC(N)=O)NC(=O)[C@H](CC(=O)O)NC(=O)[C@@H](Cc3c[nH]cn3)NC(=O)[C@H](Cc3ccccc3)NC(=O)[C@@H]([C@@H](C)CC)NC(=O)[C@H](CCCN)NC2=O)[C@@H](C)CC)CS1` (stereo in doubt; form 1) [BACITRACIN A], the MIC was less than 0.013 µg/mL in the assay with Micrococcus luteus; 4 µg/mL (≈ 2.81 µM) with Staphylococcus aureus (Staphylococcus aureus, read-out: MIC); 32 µg/mL (≈ 22.5 µM) in assay [1] (Staphylococcus epidermidis, read-out: MIC).
For `CC[C@H](C)[C@@H](N)C1=N[C@@H](C(=O)N[C@H](CC(C)C)C(=O)N[C@@H](CCC(=O)O)C(=O)N[C@@H](C(=O)N[C@@H]2CCCCNC(=O)[C@@H](CC(N)=O)NC(=O)[C@H](CC(=O)O)NC(=O)[C@@H](Cc3c[nH]cn3)NC(=O)[C@H](Cc3ccccc3)NC(=O)[C@@H]([C@@H](C)CC)NC(=O)[C@H](CCCN)NC2=O)[C@@H](C)CC)CS1` (stereo in doubt; form 2) [BACITRACIN A], the MIC was determined as 4 µg/mL (≈ 2.81 µM) against Staphylococcus aureus and 32 µg/mL (≈ 22.5 µM) in assay [1].
